# Assay results reported in US20220056037A1 (SPV THERAPEUTICS INC., priority 2018, published 2022).
# pIC50: −log10 of the molar value.
# Assays:
# Assay in all cases: 2D cell proliferation assay (CellTiter-Blue)
# Type in all cases: cell-based
# BXF 5637 = details: 72 h; cell line BXF 5637; three days of treatment; read-out: IC (abs. IC50)
# Protocol: (§1) Viability of the cells was analyzed by using the CellTiter-Blue® Cell Viability Assay (Promega), and was performed according to manufacturer's instructions. Briefly, cells were harvested from exponential phase cultures (Chapter 6.6), counted and plated in 96-well flat-bottom microtiter plates at a cell density of 4,000-60,000 cells/well in a volume of 140 μl per well. After a 24 hours recovery period, 10 μL cell culture medium (six control wells/plate) or culture medium with test compound were added (Chapter 6.2). The compounds were applied at five concentrations in full-log increments up to 100 μM in duplicate. Cultures were incubated at 37° C. and 5% CO2 in a humidified atmosphere for another three days. After three days of treatment, 20 μl/well CellTiter-Blue® reagent was added. Following incubation with CellTiter-Blue® reagent for up to four hours, fluorescence (FU) was measured by using the Enspire Multimode Plate Reader (excitation λ=570 nm, emission λ=600 nm). For calculations, the mean values of duplicate/sextuplicate (untreated control) data were used.
# (§2) Drug effects were expressed in terms of the percentage of the fluorescence signal, obtained by comparison of the mean signal in the treated wells with the mean signal of the untreated controls (expressed by the test-versus-control value, T/C-value [%]):
# (§3) IC values are reported as relative IC50 values and absolute IC50 and IC70 values. […] The absolute IC70 value gives the concentration of the test compound that achieves T/C=30%. The relative IC50 value is the concentration of test compound that gives a response half way between the top and bottom plateau of the sigmoidal concentration-response curve (inflection point of the curve). Calculation was done by 4parameter non-linear curve fit (Oncotest Data Warehouse Software).
# (§4) If an IC50 or IC70 value could not be determined within the examined dose range (because a compound was either too active or lacked activity), the lowest or highest concentration studied was used for calculation of the geometric mean value.
# (§5) The overall potency of a compound was determined by the geometric mean IC50/IC70 values of all individual IC50/IC70 values. In the heatmap representation of IC50 and IC70 values, the distribution of the IC50 or IC70 values obtained for a test compound in the individual cell lines is given in relation to the geometric mean […] or IC70 value, obtained over all PDX models tested. The individual IC values range from 1/32-fold geometric mean IC (corresponding to very potent compound activity or high tumor sensitivity) to 32-fold geometric mean IC (corresponding to lack of compound activity or tumor resistance). The heatmap presentation, therefore, represents an antiproliferative “fingerprint” profile of a test compound.
# CXF HT-29 = details: Homo sapiens, 72 h; cell line CXF HT-29; three days of treatment; read-out: IC (abs. IC50)
# Protocol: as §1, §2, §3, §4, §5
# LEXFAM MV4-11 = details: Homo sapiens, 72 h; cell line LEXFAM MV4-11; three days of treatment; read-out: IC (abs. IC50)
# Protocol: as §1, §2, §3, §4, §5
# LXFA NCI-H1975 = details: Homo sapiens, 72 h; cell line LXFA NCI-H1975; three days of treatment; read-out: IC (abs. IC50)
# Protocol: as §1, §2, §3, §4, §5
# LXFL NCI-H460 = details: Homo sapiens, 72 h; cell line LXFL NCI-H460; three days of treatment; read-out: IC (abs. IC50)
# Protocol: as §1, §2, §3, §4, §5
# LYXFNH U-937 = details: Homo sapiens, 72 h; cell line LYXFNH U-937; three days of treatment; read-out: IC (abs. IC50)
# Protocol: as §1, §2, §3, §4, §5
# MAXFHER BT-474 = details: Homo sapiens, 72 h; cell line MAXFHER BT-474; three days of treatment; read-out: IC (abs. IC50)
# Protocol: as §1, §2, §3, §4, §5
# MAXFLB MCF7 (ER +) = details: Homo sapiens, 72 h; cell line MAXFLB MCF7 (ER +); three days of treatment; read-out: IC (abs. IC50)
# Protocol: as §1, §2, §3, §4, §5
# MEXF A-375 = details: Homo sapiens, 72 h; cell line MEXF A-375; three days of treatment; read-out: IC (abs. IC50)
# Protocol: as §1, §2, §3, §4, §5
# MEXF A2058 = details: Homo sapiens, 72 h; cell line MEXF A2058; three days of treatment; read-out: IC (abs. IC50)
# Protocol: as §1, §2, §3, §4, §5
# OVXF SK-OV-3 = details: Homo sapiens, 72 h; cell line OVXF SK-OV-3; three days of treatment; read-out: IC (abs. IC50)
# Protocol: as §1, §2, §3, §4, §5
# PAXF BxPC-3 = details: Homo sapiens, 72 h; cell line PAXF BxPC-3; three days of treatment; read-out: IC (abs. IC50)
# Protocol: as §1, §2, §3, §4, §5
# PRXF VCap = details: Homo sapiens, 72 h; cell line PRXF VCap; three days of treatment; read-out: IC (abs. IC50)
# Protocol: as §1, §2, §3, §4, §5
# UXF EFE-184 = details: Homo sapiens, 72 h; cell line UXF EFE-184; three days of treatment; read-out: IC (abs. IC50)
# Protocol: as §1, §2, §3, §4, §5
smiles,measurement,setting,value
CN1CCN(c2ccc(Nc3ncc4cc(C(=O)N(C)C)n(C56CC(C5)C6)c4n3)cc2)CC1 [SPV113],pIC50,BXF 5637,6.32
same,pIC50,CXF HT-29,6.36
same,pIC50,LEXFAM MV4-11,≥ 8.00
same,pIC50,LXFA NCI-H1975,6.91
same,pIC50,LXFL NCI-H460,6.54
same,pIC50,LYXFNH U-937,≥ 8.00
same,pIC50,MAXFHER BT-474,6.10
same,pIC50,MAXFLB MCF7 (ER +),6.76
same,pIC50,MEXF A-375,7.00
same,pIC50,MEXF A2058,5.82
same,pIC50,OVXF SK-OV-3,5.50
same,pIC50,PAXF BxPC-3,6.71
same,pIC50,PRXF VCap,7.82
same,pIC50,UXF EFE-184,6.04
